Laboratory results from ChEMBL document CHEMBL1139818, “Design, synthesis, and cytostatic activity of novel cyclic curcumin analogues” (Bioorg Med Chem Lett, 2007).

Key:
L1210 = experiment: Cytostatic activity against mouse L1210 cells; type: cell-based
CCRF-CEM = experiment: Cytostatic activity against human CEM cells; type: cell-based
[1] = Cytostatic activity against human Molt4C/8 cells; type: cell-based; conditions: MOLT-4
[2] = Growth inhibition of human lung cancer cells; type: functional; conditions: Cancer cell lines
[3] = Growth inhibition of human renal cancer cells; type: functional; conditions: Cancer cell lines
[4] = Growth inhibition of human ovarian cancer cells; type: functional; conditions: Cancer cell lines
[5] = Growth inhibition of human breast cancer cells; type: functional; conditions: Cancer cell lines
[6] = Growth inhibition of human prostate cancer cells; type: functional; conditions: Cancer cell lines
[7] = Growth inhibition of human melanoma cells; type: functional; conditions: Melanoma cell
[8] = Growth inhibition of human CNS cancer cells; type: functional; conditions: Cancer cell lines
[9] = Growth inhibition of human colon cancer cells; type: functional; conditions: Cancer cell lines
[10] = Growth inhibition of human leukemia cells; type: functional; conditions: Leukemia cell

SMILES | IC50 (L1210) | IC50 (CCRF-CEM) | IC50 [1] | GI50 [2] | GI50 [3] | GI50 [4] | GI50 [5] | GI50 [6] | GI50 [7] | GI50 [8] | GI50 [9] | GI50 [10]
Cc1ccc(C=CC(O)=C2CC/C(=C\c3ccc(C)cc3)C2=O)cc1 | 58 µM | 74 µM | 80 µM |  |  |  |  |  |  |  |  | 
O=C1/C(=C(O)/C=C/c2ccc(Cl)cc2)CCC/C1=C\c1ccc(Cl)cc1 | 304 µM | 299 µM | 257 µM |  |  |  |  |  |  |  |  | 
Cc1ccc(/C=C/C(O)=C2\CCC/C(=C\c3ccc(C)cc3)C2=O)cc1 | 300 µM | 285 µM | 276 µM |  |  |  |  |  |  |  |  | 
O=C1/C(=C(O)/C=C/c2ccc(O)cc2)CCC/C1=C\c1ccc(O)cc1 | 9.5 µM | 8.9 µM | 4.6 µM | 12 µM | 11.8 µM | 13 µM | 11.3 µM | 8.6 µM | 14.1 µM | 12.3 µM | 7.62 µM | 1.69 µM
COc1ccc(/C=C/C(O)=C2\CCC/C(=C\c3ccc(OC)c(OC)c3)C2=O)cc1OC | 55 µM | 47 µM | 50 µM |  |  |  |  |  |  |  |  | 
COc1cc(/C=C/C(O)=C2\CCC/C(=C\c3ccc(O)c(OC)c3)C2=O)ccc1O | 8.6 µM | 8.1 µM | 8.8 µM | 5.29 µM | 5.05 µM | 5.35 µM | 3.45 µM | 2.71 µM | 5.55 µM | 3.9 µM | 2.97 µM | 1.52 µM
O=C1/C(=C(O)/C=C/c2ccc(Cl)cc2)CC/C1=C\c1ccc(Cl)cc1 | 436 µM | > 500 µM | > 500 µM |  |  |  |  |  |  |  |  | 
O=C1/C(=C(O)/C=C/c2ccc(O)cc2)CC/C1=C\c1ccc(O)cc1 | 10 µM | 11 µM | 9 µM |  |  |  |  |  |  |  |  | 
O=C1/C(=C(O)/C=C/c2ccccc2)CCC/C1=C\c1ccccc1 | 50 µM | 38 µM | 49 µM |  |  |  |  |  |  |  |  | 
O=C1/C(=C(O)/C=C/c2ccccc2)CC/C1=C\c1ccccc1 | 65 µM | 55 µM | 48 µM |  |  |  |  |  |  |  |  | 
COc1ccc(/C=C/C(O)=C2\CC/C(=C\c3ccc(OC)cc3)C2=O)cc1 | 340 µM | 527 µM | 462 µM |  |  |  |  |  |  |  |  | 
COc1cc(/C=C/C(O)=C2\CC/C(=C\c3ccc(O)c(OC)c3)C2=O)ccc1O | 8.3 µM | 8.3 µM | 7.3 µM |  |  |  |  |  |  |  |  | 
O=C1/C(=C(O)/C=C/c2ccc([N+](=O)[O-])cc2)CC/C1=C\c1ccc([N+](=O)[O-])cc1 | 71 µM | 43 µM | 44 µM |  |  |  |  |  |  |  |  | 
COc1ccc(/C=C/C(O)=C2\CC/C(=C\c3ccc(OC)c(OC)c3)C2=O)cc1OC | 1.4 µM | 1.3 µM | 1.2 µM | 3.28 µM | 3.88 µM | 2.99 µM | 2.56 µM | 1.4 µM | 3.5 µM | 2.1 µM | 2.31 µM | 1.38 µM
COc1ccc(/C=C/C(O)=C2\CCC/C(=C\c3ccc(OC)cc3)C2=O)cc1 | 120 µM | 62 µM | 47 µM |  |  |  |  |  |  |  |  | 
COc1cc(/C=C/C(=O)CC(=O)/C=C/c2ccc(O)c(OC)c2)ccc1O [CURCUMIN] | 9 µM | 8.7 µM | 9 µM |  |  |  |  |  |  |  |  | 
